In patent publication US8329445B2, “Biosynthesis of phloroglucinol and preparation of 1,3-dihydroxybenzene therefrom” (Board of Trustees of Michigan State University, priority 2004, dated 2012):

Key:
2-pyrone synthase = target: T1, 2-pyrone synthase (Gerbera hybrida, UniProt P48391); experiment: in vitro enzymology of purified 2-pyrone synthase; format: biochemical
T1 construct: made in house
T1 sequence (P48391 1-402): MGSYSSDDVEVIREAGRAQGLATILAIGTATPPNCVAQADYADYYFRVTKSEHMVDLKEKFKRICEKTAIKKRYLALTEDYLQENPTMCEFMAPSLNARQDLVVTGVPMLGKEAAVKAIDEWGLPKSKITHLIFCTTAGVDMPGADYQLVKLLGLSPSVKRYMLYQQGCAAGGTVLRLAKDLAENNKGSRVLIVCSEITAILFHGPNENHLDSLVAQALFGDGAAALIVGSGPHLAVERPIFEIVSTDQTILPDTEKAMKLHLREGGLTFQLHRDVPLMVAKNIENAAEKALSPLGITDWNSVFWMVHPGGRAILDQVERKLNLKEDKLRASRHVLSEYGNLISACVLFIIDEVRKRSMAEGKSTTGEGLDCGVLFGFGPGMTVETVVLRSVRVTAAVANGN
Source text: (§1) To further explore its role in phloroglucinol biosynthesis, PhlD is purified to homogeneity and its in vitro enzymology examined. No activity (Table 1) is observed when acetyl-CoA alone is employed as a substrate. […] For comparison, 2-pyrone synthase, which like PhlD employs an activated 3,5-diketohexanoate 2 (Scheme 1), is purified to homogeneity.

PhlD = target: T2, PhlD (Pseudomonas fluorescens, UniProt Q4K418); experiment: in vitro enzymology of purified PhlD; format: biochemical, P. fluorescens Pf-5
T2 construct: made in house
T2 sequence (Q4K418 1-349): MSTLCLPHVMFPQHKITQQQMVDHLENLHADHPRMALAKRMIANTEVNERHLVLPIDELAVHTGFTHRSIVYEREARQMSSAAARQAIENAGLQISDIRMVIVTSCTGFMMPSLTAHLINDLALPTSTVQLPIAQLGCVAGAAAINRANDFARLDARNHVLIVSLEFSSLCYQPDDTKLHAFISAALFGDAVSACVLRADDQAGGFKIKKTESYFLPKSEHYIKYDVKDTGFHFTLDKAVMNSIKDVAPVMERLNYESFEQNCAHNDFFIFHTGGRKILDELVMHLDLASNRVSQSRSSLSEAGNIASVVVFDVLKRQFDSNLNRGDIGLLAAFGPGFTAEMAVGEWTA
Source text: as §1

E. coli strains = experiment: end-product inhibition in fed-batch fermentation of phlD-expressing E. coli strains; format: cell-based; conditions: culture medium concentration; data not shown
Procedure: Plasmid pJA3.131A (Kan^R, lacI^Q, PT7-phlD, serA) is transfected into chromosomally serA^− E. coli strains BL21(DE3), W3110(DE3), and JWF1(DE3) [i.e. RB791serA^−(DE3)], and into strain KL3(DE3) [i.e. AB2834(serA::aroB)] (E. coli strains RB791 and AB2834 are available from the E. coli Genetic Stock Center, New Haven, Conn., USA). All DE3 strains are obtained by integration of λDE3 prophage into the cell chromosomes. Cells are cultured in fed-batch conditions under mineral salts and limited glucose.
In these tests, phloroglucinol accumulation for all strains stops increasing during the stationary (or maintenance) phase. For BL21 and W3110, the highest phloroglucinol concentration is achieved about 6 hours and about 12 hours, respectively, after initiation of induction, i.e. the first IPTG addition. End-product inhibition is also observed.

[1] = substrate: CC(C)(COP(=O)(O)OP(=O)(O)OC[C@H]1O[C@@H](n2cnc3c(N)ncnc32)[C@H](O)[C@@H]1OP(=O)(O)O)[C@@H](O)C(=O)NCCC(=O)NCCSC(=O)CC(=O)O; experiment: in vitro enzymology of purified PhlD; format: biochemical, P. fluorescens Pf-5; conditions: other: substrate of PhlD purified to homogeneity
Source text: as §1

[2] = substrate: CC(=O)SCCNC(=O)CCNC(=O)[C@H](O)C(C)(C)COP(=O)(O)OP(=O)(O)OC[C@H]1O[C@@H](n2cnc3c(N)ncnc32)[C@H](O)[C@@H]1OP(=O)(O)O; experiment: in vitro enzymology of purified 2-pyrone synthase; format: biochemical, Gerbera hybrida; conditions: other: substrate of 2-pyrone synthase purified to homogeneity
Source text: as §1

“2-pyrone synthase: 2-pyrone synthase from Gerbera hybrida, converts malonyl-CoA into triacetic acid lactone; comparison enzyme” was tested, and the kcat (2-pyrone synthase; 2-pyrone synthase purified to homogeneity) was 0.055 s⁻¹.

With `CC(=O)SCCNC(=O)CCNC(=O)[C@H](O)C(C)(C)COP(=O)(O)OP(=O)(O)OC[C@H]1O[C@@H](n2cnc3c(N)ncnc32)[C@H](O)[C@@H]1OP(=O)(O)O` [acetyl-CoA] the “specific activity with malonyl-CoA and acetyl-CoA relative to only malonyl-CoA” value (PhlD; PhlD incubated with malonyl-CoA and acetyl-CoA) was “Approximately equal”, the activity as substrate (PhlD; employed alone as a substrate of PhlD) was “No activity” and the “specific activity with malonyl-CoA and acetyl-CoA relative to malonyl-CoA in the absence of acetyl-CoA” value (2-pyrone synthase; 2-pyrone synthase incubated with malonyl-CoA and acetyl-CoA) was “twofold higher”. The activity as substrate (2-pyrone synthase; acetyl-CoA as a substrate of 2-pyrone synthase) was “unable to use acetyl-CoA as a substrate”.

`Oc1cc(O)cc(O)c1` [phloroglucinol, 1,3,5-trihydroxybenzene] was tested, and the “concentration at which phloroglucinol is responsible for end-product inhibition” value (E. coli strains) was no less than 2 g/L.

B1: PhlD (Pseudomonas protegens Pf-5) (protein)
chain: MSTLCLPHVMFPQHKITQQQMVDHLENLHADHPRMALAKRMIANTEVNERHLVLPIDELAVHTGFTHRSIVYEREARQMSSAAARQAIENAGLQISDIRMVIVTSCTGFMMPSLTAHLINDLALPTSTVQLPIAQLGCVAGAAAINRANDFARLDARNHVLIVSLEFSSLCYQPDDTKLHAFISAALFGDAVSACVLRADDQAGGFKIKKTESYFLPKSEHYIKYDVKDTGFHFTLDKAVMNSIKDVAPVMERLNYESFEQNCAHNDFFIFHTGGRKILDELVMHLDLASNRVSQSRSSLSEAGNIASVVVFDVLKRQFDSNLNRGDIGLLAAFGPGFTAEMAVGEWTA
notes: made in house
B1 was tested, and the Km [1] was 37 µM.

B2: PhlD: phloroglucinol synthase expressed from phlD gene of P. fluorescens Pf-5, SEQ ID NO:2 (protein)
chain: MSTLCLPHVMFPQHKITQQQMVDHLENLHADHPRMALAKRMIANTEVNERHLVLPIDELAVHTGFTHRSIVYEREARQMSSAAARQAIENAGLQISDIRMVIVTSCTGFMMPSLTAHLINDLALPTSTVQLPIAQLGCVAGAAAINRANDFARLDARNHVLIVSLEFSSLCYQPDDTKLHAFISAALFGDAVSACVLRADDQAGGFKIKKTESYFLPKSEHYIKYDVKDTGFHFTLDKAVMNSIKDVAPVMERLNYESFEQNCAHNDFFIFHTGGRKILDELVMHLDLASNRVSQSRSSLSEAGNIASVVVFDVLKRQFDSNLNRGDIGLLAAFGPGFTAEMAVGEWTA
modifications: Pseudomonas fluorescens Pf-5
B2 gave a kcat (PhlD; PhlD purified to homogeneity, malonyl-CoA substrate) of 0.0783 s⁻¹.

B3: 2-pyrone synthase (Gerbera hybrid cultivar) (protein)
chain: MGSYSSDDVEVIREAGRAQGLATILAIGTATPPNCVAQADYADYYFRVTKSEHMVDLKEKFKRICEKTAIKKRYLALTEDYLQENPTMCEFMAPSLNARQDLVVTGVPMLGKEAAVKAIDEWGLPKSKITHLIFCTTAGVDMPGADYQLVKLLGLSPSVKRYMLYQQGCAAGGTVLRLAKDLAENNKGSRVLIVCSEITAILFHGPNENHLDSLVAQALFGDGAAALIVGSGPHLAVERPIFEIVSTDQTILPDTEKAMKLHLREGGLTFQLHRDVPLMVAKNIENAAEKALSPLGITDWNSVFWMVHPGGRAILDQVERKLNLKEDKLRASRHVLSEYGNLISACVLFIIDEVRKRSMAEGKSTTGEGLDCGVLFGFGPGMTVETVVLRSVRVTAAVANGN
notes: made in house
B3 showed a Km [2] of 2.2 µM.
